ChEMBL document CHEMBL1201862, “PubChem BioAssay data set” (2004)
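Results reflect a 48-hour exposure of cells in 96-well plates to compound at five concentrations. GI50 = concentration required for 50% inhibition of growth.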 Activity calls are given as the source filed them. Cut-off read from the data, not from the text of the source: active = GI50 up to about 1.1 µM and inactive = higher.

Assays:
Assay in all cases: DTP human tumour cell line panel, 48 h
HCT-116 = tested on: HCT-116
HT-29 = tested on: HT-29
HOP-62 = tested on: HOP-62
OVCAR-3 = tested on: OVCAR-3
NCI-H226 = tested on: NCI-H226
CCRF-CEM = tested on: CCRF-CEM
SR = tested on: SR
OVCAR-5 = tested on: OVCAR-5
SF-268 = tested on: SF-268
EKVX = tested on: EKVX
SNB-19 = tested on: SNB-19
SN12C = tested on: SN12C
U-251 = tested on: U-251
DMS-273 = tested on: DMS-273
SNB-75 = tested on: SNB-75
SK-MEL-2 = tested on: SK-MEL-2

SMILES	GI50 (HCT-116)	GI50 (HT-29)	GI50 (HOP-62)	GI50 (OVCAR-3)	GI50 (NCI-H226)	GI50 (CCRF-CEM)	GI50 (SR)	GI50 (OVCAR-5)	GI50 (SF-268)	GI50 (EKVX)	GI50 (SNB-19)	GI50 (SN12C)	GI50 (U-251)	GI50 (DMS-273)	GI50 (SNB-75)	GI50 (SK-MEL-2)
CN(C)NC1=C([N+](=O)[O-])C=NN(c2ccccc2)C1	1.82 µM (inactive)	1.95 µM (inactive)	2.16 µM (inactive)	1.85 µM (inactive)	3.84 µM (inactive)	1.79 µM (inactive)	0.811 µM (active)	1.67 µM (inactive)	1.85 µM (inactive)	1.75 µM (inactive)	2.54 µM (inactive)	1.76 µM (inactive)	1.76 µM (inactive)	1.75 µM (inactive)	1.73 µM (inactive)	1.71 µM (inactive)
C=C=C(C(=O)OC)[S+]([O-])c1ccc([N+](=O)[O-])cc1[N+](=O)[O-] (stereo unspecified)	21.4 µM (inactive)	26.1 µM (inactive)	> 45.3 µM (inactive)	25.3 µM (inactive)	54.6 µM (inactive)	12 µM (inactive)	14.1 µM (inactive)	> 82.4 µM (inactive)	39 µM (inactive)	> 100 µM (inactive)	56 µM (inactive)	22.4 µM (inactive)	38.1 µM (inactive)	37.4 µM (inactive)	29 µM (inactive)	44.5 µM (inactive)
COc1ccc(OC)c(NC(=O)CCC/C(CC(=O)c2ccc(O)c(OC)c2)=N\NC(=O)C[N+](C)(C)C)c1		> 100 µM (inactive)	> 100 µM (inactive)	> 100 µM (inactive)	> 100 µM (inactive)	> 100 µM (inactive)	> 100 µM (inactive)	> 100 µM (inactive)	> 100 µM (inactive)	> 100 µM (inactive)	> 100 µM (inactive)	> 100 µM (inactive)	> 100 µM (inactive)	> 100 µM (inactive)	84.7 µM (inactive)	> 100 µM (inactive)
O=C(O)/C=C\C(=O)c1ccc(Cl)cc1	25.2 µM (inactive)	27.2 µM (inactive)	> 100 µM (inactive)	28.8 µM (inactive)	> 55.8 µM (inactive)	20 µM (inactive)	24.3 µM (inactive)	> 100 µM (inactive)	29.4 µM (inactive)	> 56.4 µM (inactive)	> 63 µM (inactive)	51.9 µM (inactive)	> 56.9 µM (inactive)	20.2 µM (inactive)	44 µM (inactive)	28.6 µM (inactive)
O=C(c1ccc(Cl)cc1)c1ccc(OCCCOc2ccc(C(=O)c3ccc(Cl)cc3)cc2)cc1	> 100 µM (inactive)	> 100 µM (inactive)	> 100 µM (inactive)	> 100 µM (inactive)	> 100 µM (inactive)	> 100 µM (inactive)	> 100 µM (inactive)	> 100 µM (inactive)	> 100 µM (inactive)	> 100 µM (inactive)	> 100 µM (inactive)	> 100 µM (inactive)	> 100 µM (inactive)	> 100 µM (inactive)	33.6 µM (inactive)	> 100 µM (inactive)
COc1cc(Br)c(/C=N/N=C(\N)NO)cc1OC	15.2 µM (inactive)	15 µM (inactive)	14.1 µM (inactive)	33.2 µM (inactive)	10.9 µM (inactive)	30.1 µM (inactive)	11.8 µM (inactive)	21.8 µM (inactive)	8.87 µM (inactive)	7.21 µM (inactive)	46.3 µM (inactive)	24.6 µM (inactive)	23.4 µM (inactive)	40.8 µM (inactive)	21.3 µM (inactive)	26.1 µM (inactive)
CC1(Cl)CC2OC3(Br)C=CC(C)(O)C2(CC1Br)C3(C)C (stereo unspecified)	> 100 µM (inactive)	> 100 µM (inactive)	> 100 µM (inactive)	> 100 µM (inactive)	> 100 µM (inactive)	> 100 µM (inactive)	23.6 µM (inactive)	> 100 µM (inactive)	> 100 µM (inactive)	> 100 µM (inactive)	> 100 µM (inactive)	> 100 µM (inactive)	> 100 µM (inactive)	> 100 µM (inactive)	82.6 µM (inactive)	> 100 µM (inactive)
CCCCCC(=O)Nc1nc(O)c2[nH]cnc2n1	> 100 µM (inactive)	> 100 µM (inactive)	> 100 µM (inactive)	> 100 µM (inactive)	> 100 µM (inactive)	> 100 µM (inactive)	> 100 µM (inactive)	> 100 µM (inactive)	> 100 µM (inactive)	> 100 µM (inactive)	> 100 µM (inactive)	> 100 µM (inactive)	> 100 µM (inactive)	> 100 µM (inactive)	> 100 µM (inactive)	> 100 µM (inactive)
CC12N=NN(c3ccc([N+](=O)[O-])cc3)C1(O)c1ccccc1C2=O (stereo unspecified)	> 100 µM (inactive)	> 100 µM (inactive)	> 100 µM (inactive)	> 100 µM (inactive)	> 100 µM (inactive)		> 100 µM (inactive)		> 100 µM (inactive)	> 100 µM (inactive)	> 100 µM (inactive)	> 100 µM (inactive)	> 100 µM (inactive)	> 100 µM (inactive)		
COC(=O)c1c(C)oc2ccc(OC(C)=O)cc12	> 100 µM (inactive)	83 µM (inactive)	> 100 µM (inactive)	> 100 µM (inactive)	> 100 µM (inactive)	> 100 µM (inactive)	> 100 µM (inactive)	> 100 µM (inactive)	90.8 µM (inactive)	54.3 µM (inactive)	> 100 µM (inactive)	> 100 µM (inactive)	> 100 µM (inactive)	> 100 µM (inactive)	34.8 µM (inactive)	> 100 µM (inactive)
COc1ccc(O)c(C(=O)CCC(=O)O)c1		> 100 µM (inactive)	> 10 µM (inactive)	> 10 µM (inactive)	> 100 µM (inactive)	> 100 µM (inactive)	> 100 µM (inactive)	> 100 µM (inactive)	> 100 µM (inactive)	> 100 µM (inactive)	> 100 µM (inactive)	> 100 µM (inactive)	> 100 µM (inactive)	> 100 µM (inactive)	> 100 µM (inactive)	> 100 µM (inactive)
CCn1c(CSc2nc(-c3ccccc3)c(-c3ccccc3)[nH]2)n[nH]c1=S	> 100 µM (inactive)	> 100 µM (inactive)	> 100 µM (inactive)	> 100 µM (inactive)	> 100 µM (inactive)	> 100 µM (inactive)	> 100 µM (inactive)	> 100 µM (inactive)	> 100 µM (inactive)	> 100 µM (inactive)	> 100 µM (inactive)	> 100 µM (inactive)	> 100 µM (inactive)	> 100 µM (inactive)	> 100 µM (inactive)	> 100 µM (inactive)
CC1(c2ccccc2)CC12C(=O)NC(=O)NC2=O (stereo unspecified)	> 100 µM (inactive)	> 100 µM (inactive)	> 100 µM (inactive)	> 100 µM (inactive)	> 100 µM (inactive)	> 100 µM (inactive)	> 100 µM (inactive)	> 100 µM (inactive)	> 100 µM (inactive)	> 100 µM (inactive)	> 100 µM (inactive)	> 100 µM (inactive)	> 100 µM (inactive)	> 100 µM (inactive)		> 100 µM (inactive)
